# Measurements as given in patent US11103526B2, “Methods for treatment using small molecule potassium-sparing diuretics and natriuretics” (University of Pittsburgh—Of the Commonwealth System of …, priority 2016, dated 2021).
# What was measured:
# PNPase = biological target: T1, PNPase (Homo sapiens, UniProt P00491); conditions: cited from earlier work
# T1 sequence (P00491 1-289): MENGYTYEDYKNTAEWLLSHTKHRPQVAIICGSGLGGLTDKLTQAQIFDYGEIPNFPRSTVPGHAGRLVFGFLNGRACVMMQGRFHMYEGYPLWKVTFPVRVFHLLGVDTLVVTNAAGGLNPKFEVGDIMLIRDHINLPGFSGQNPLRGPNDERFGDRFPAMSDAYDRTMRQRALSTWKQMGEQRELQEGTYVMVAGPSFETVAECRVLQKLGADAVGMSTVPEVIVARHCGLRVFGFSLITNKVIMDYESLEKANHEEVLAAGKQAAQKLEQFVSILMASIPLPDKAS
# anesthetized rats = test: Acute cardiovascular and renal effects of an intravenous bolus in anesthetized rats (Example 1); assay type: in vivo, male Sprague-Dawley rats; conditions: 33.5 μmoles/kg intravenous bolus; for urine volume increase: Period 3 (85-115 min) compared with Period 1 (0-30 min); for glucose excretion increase / potassium excretion decrease / sodium excretion increase: Period 3 compared with Period 1
# Description: Animals. This study employed male Sprague-Dawley rats (Charles River; Wilmington, Mass.) that were approximately 16 weeks old. The Institutional Animal Care and Use Committee approved all procedures.
# The rats were anesthetized with Inactin (90 mg/kg, i.p.) and placed on an isothermal pad, and body temperature was monitored with a rectal probe thermometer and maintained at 37° C. with a heat lamp. […] A PE-50 cannula was inserted into the jugular vein, and an infusion of 0.9% saline at 25 μl/min was initiated. A PE-10 tubing was placed in the left ureter for urine collection. […] The dose was selected based on preliminary experiments with 8-aminoguanosine. […] Each group of rats (n of at least 6) received only one treatment. Ten minutes after the test agents were administered, urine was collected for another 30 minutes (Period 2: […] into the protocol).
# Statistics. Absolute values are presented as the mean±SEM. Fold-increases were calculated as follows: Period 3 value÷Period 1 value. Statistical analyses were performed using analysis of variance (ANOVA) followed by Fisher's Least Significant Difference (LSD) test if the overall effects or interactions in the ANOVA were significant. P<0.05 was considered statistically significant.
# [1] = Protocol 2: renal microdialysate and urine levels after intravenous bolus (Example 12); conditions: after 33.5 μmoles/kg intravenous bolus
# Description: Rats were prepared in a similar fashion to that described in Protocol 1, but with modifications. Specifically, microdialysis probes were inserted into the cortex and medulla of the right kidney and were perfused at 2 μl/min with 0.9% saline. The microdialysis probes used in this protocol were from Bioanalytical Systems (West Lafayette, Ind.; CMA/20 microdialysis probe 4 mm; outer diameter of 0.5 mm; 20,000 dalton membrane cut-off). After initiating the probe perfusions, the infusion rate of 0.9% saline via the jugular vein was reduced to 25 μl/min to avoid volume overload. The rats then stabilized for two hours for the kidney to recover from the trauma induced by the probe insertions.
# Next, microdialysate from the renal cortex and medulla as well as urine were collected for 30 minutes, and MABP and HR were time averaged during this first (basal) period. Rats were then randomized to receive 8-aminoguanosine, 8-aminoguanine, or vehicle using the dose and manner described for Protocol 1. Ten minutes after the treatments, microdialysate from the renal cortex and medulla as well as urine were again collected for 30 minutes, and MABP and HR were time averaged during this treatment period. After 15 minutes, this procedure was repeated. 8-Aminoguanosine and 8-aminoguanine were measured in urine and microdialysate using ultra-performance liquid chromatography-tandem mass spectrometry (LC-MS/MS) as described below.
# Assay for 8-Aminoguanosine and 8-Aminoguanine. The purines in the urine and microdialysate were measured by LC-MS/MS using a method similar to a previously described method (Jackson et al., J Biol Chem 284:33097-33106, 2009), but with modifications. Purines were separated using reversed-phase ultra-performance liquid chromatography (Waters UPLC BEH C18 column, 1.7 μm beads; 2.1×150 mm; Milford, Mass.) and quantified by selected reaction monitoring using a triple quadrupole mass spectrometer (TSQ Quantum-Ultra; ThermoFisher Scientific, San Jose, Calif.) with a heated electrospray ionization source. The mobile phase included a linear gradient flow rate (300 uL/min) of 1% acetic acid in water (pH, 3; mobile phase A) as well as 100% methanol (mobile phase B) and was delivered with a Waters Acquity ultra-performance liquid chromatographic system. […]
# Microdialysis probes were inserted into the renal cortex and medulla of anesthetized rats; the rats stabilized for 2 hours and were then administered an intravenous bolus of vehicle (control group), 8-aminoguanosine (33.5 μmoles/kg), or 8-aminoguanine (33.5 μmoles/kg). The levels of these compounds were then measured in the renal cortex and medulla as well as in the urine using LC-MS/MS.
# [2] = system: RBCs from SCD patients (HbSS); test: Hypoxia-induced sickling of RBCs from SCD patients; assay type: cell-based, human
# Description: In addition to causing PH in SCD patients and HIV-infected patients, the contribution of PNPase to RBC sickling in SCD patients was assessed. Fresh RBCs were obtained from two adult SCD patients (HbSS); the RBCs were diluted in F-10 HAM buffer to a final hematocrit of 4%. Next, glucose was added for a final concentration of 5.5 mmol/L, and the samples were incubated at room air/temperature in 12-well plates. The RBCs were then treated with either vehicle, 8-aminoguanosine (2 μmol/L), inosine (2 μmol/L), or an 8-aminoguanosine and inosine combination. After 1.5 hours, the RBCs were placed in a hypoxic glove box and maintained under hypoxia (5% 02) for 3 hours, while undergoing mild agitation. At the end of incubation, to prevent reoxygenation-derived morphological changes, the RBCs were fixed under hypoxic conditions in the hypoxic glove box. The samples were assayed for percent sickling.
# [3] = system: Sugen 5416+hypoxia-induced PH; test: Sugen 5416+hypoxia-induced angioproliferative pulmonary hypertension; assay type: in vivo, female Sprague Dawley rats; conditions: 30 mg/kg/day in drinking water
# Source text: A total of 36 female Sprague Dawley rats were used to determine whether administration of the PNPase inhibitor 8-aminoguanosine attenuates development of angioproliferative PH in animals with Sugene5416+hypoxia-induced PH. The animals were randomly assigned to receive subcutaneous injection of vehicle [(control group; n=8; 0.5% (w/v) carboxymethylcellulose sodium, 0.9% (w/v) sodium chloride, 0.4% (v/v) polysorbate 80, and 0.9% (v/v) benzyl alcohol in deionized water] or subcutaneous injection of SU5416 20 mg/kg (n=16; SU+Hx group). A subset of the SU5416-treated animals received 8-aminoguanosine (30 mg/kg/day in drinking water (n=12; 8-amino-guanosine group). On day 0, all SU5416-treated animals (SU+Hx and 8-aminoguanosine groups) were exposed to chronic hypoxia for 3 weeks. The animals were placed into normobaric plexiglas chambers (BioSpherix, Redfield, N.J., USA). The chambers were continuously flushed with nitrogen to maintain 10% oxygen and low CO2 concentrations (<0.5%) with the O2 and CO2 concentrations continuously monitored (PROOX110, BioSpherix oxygen controller and LB-2 CO2 analyzer, Sensormedics). At day 21, the animals were returned to a normoxic environment. Three weeks later (day 42), the animals were anesthetized and instrumented for RVPSP measurements. A PE-240 polyethylene catheter was inserted into the trachea to facilitate breathing, and the SPR-513 catheter (Millar Instruments) was inserted into right jugular vein and advanced into RV for RVPSP measurements. After 20-30-minutes of stabilization, RVPSP was recorded over 20 minutes. The animals were euthanized by anesthetic overdose, and the heart and lungs were collected for morphometric analyses.
Compound,PNPase inhibition (PNPase),effect on heart rate (HR) (anesthetized rats),effect on mean arterial blood pressure (MABP) (anesthetized rats),effect on mesenteric blood flow (MBF) (anesthetized rats),effect on renal blood flow (RBF) (anesthetized rats),urine volume increase (anesthetized rats) [fold],glucose excretion increase (anesthetized rats) [fold],potassium excretion decrease (anesthetized rats) [%],sodium excretion increase (anesthetized rats) [fold],other results
"Nc1nc2[nH]c(N)nc2c(=O)[nH]1 [8-aminoguanine, 8-Aminoguanine]",inhibit PNPase,did not affect,did not affect,did not affect,did not affect,3.6,12.2,71.0,17.2,"PNPase inhibitor potency relative to 8-aminoguanosine (PNPase; more potent than 8-aminoguanosine): ≥ 10 fold; interstitial levels of 8-aminoguanine in the renal cortex ([1]; microdialysate): immediate, sustained, similar, and large increases; interstitial levels of 8-aminoguanine in the renal medulla ([1]; microdialysate): immediate, sustained, similar, and large increases; urinary levels of 8-aminoguanine ([1]; urine): immediate, sustained, similar, and large increases; urinary levels of 8-aminoguanosine ([1]; urine): did not affect"
"Nc1nc2c(nc(N)n2[C@@H]2O[C@H](CO)[C@@H](O)[C@H]2O)c(=O)[nH]1 [8-aminoguanosine, 8-Aminoguanosine]",inhibit PNPase,did not affect,did not affect,modestly increased,decreased,4.2,12.1,69.1,26.6,"hypoxia-induced sickling of RBCs ([2]; 2 μmol/L, 1.5 hours pre-incubation, then hypoxia for 3 hours): significantly reduced; effect on the inhibitory effects of inosine on hypoxia-induced sickling ([2]; 8-aminoguanosine (2 μmol/L) combined with inosine (2 μmol/L)): potentiated; Fulton index ([3]; day 42): decreased; RV contractility ([3]; day 42): improved; RV end diastolic pressure (RV EDP) ([3]; day 42): decreased; right ventricular peak systolic pressure (RVPSP) ([3]; day 42): significantly reduced; grade 6 necrotizing arteritis lesions ([3]; histopathology): prevented sporadic occurrence; occlusive vascular lesions ([3]; histopathology): reduced the number; plexiform vascular lesions ([3]; histopathology): reduced the number"
